From BindingDB's records for patent US11938127 (Wayne State University, 2024)

Molecular target: T1, Cytochrome P450 1A2 (Homo sapiens, UniProt P05177)
T1 sequence (P05177 whole entry): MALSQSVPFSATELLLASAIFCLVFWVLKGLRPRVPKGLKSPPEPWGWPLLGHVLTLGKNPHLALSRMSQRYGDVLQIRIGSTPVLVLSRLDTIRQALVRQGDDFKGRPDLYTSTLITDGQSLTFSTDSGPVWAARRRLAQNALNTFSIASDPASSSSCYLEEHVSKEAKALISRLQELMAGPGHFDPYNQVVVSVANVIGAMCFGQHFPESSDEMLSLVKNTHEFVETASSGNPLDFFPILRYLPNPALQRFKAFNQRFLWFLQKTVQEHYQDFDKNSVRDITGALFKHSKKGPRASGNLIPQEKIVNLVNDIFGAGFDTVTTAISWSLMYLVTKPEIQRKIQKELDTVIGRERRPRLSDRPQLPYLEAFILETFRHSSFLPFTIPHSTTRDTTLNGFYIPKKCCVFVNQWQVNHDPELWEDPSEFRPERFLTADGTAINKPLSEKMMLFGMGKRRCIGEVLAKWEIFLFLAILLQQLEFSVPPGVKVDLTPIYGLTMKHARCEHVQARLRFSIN
Test: CYP1A2 Inhibition Assay
Protocol: The quenched samples were incubated at 4° C. for 10 min and centrifuged at 4° C. for 10 min.

IC50: 2920 nM
Structure (SMILES): CC(C)(C)CN1c2cccc(O)c2C(=O)CC1c1cccc(O)c1 (stereo unspecified) [US11938127, Compound KCI838]
